7 molecules from PubChem BioAssay AID1259407 (Chemical Carcinogenesis Research Information System (CCRIS), 2018) can be followed below.

This series relates to CCRIS mutagenicity, Ames/micronucleus/aberration tests. The series is described as follows: CCRIS mutagenicity studies.
Setting [1] is: Test System: AMES SALMONELLA TYPHIMURIUM, Strain/Indicator: TA98, Metabolic Activation: NONE, Method: STANDARD PLATE.
[2] abbreviates: Test System: AMES SALMONELLA TYPHIMURIUM, Strain/Indicator: TA100, Metabolic Activation: NONE, Method: STANDARD PLATE.
The mark [3] stands for this setting: Test System: AMES SALMONELLA TYPHIMURIUM, Strain/Indicator: TA98, Metabolic Activation: RAT, LIVER, S-9, AROCLOR 1254, Method: STANDARD PLATE.
Where [4] appears, read: Test System: AMES SALMONELLA TYPHIMURIUM, Strain/Indicator: TA98, Metabolic Activation: NONE, Method: PREINCUBATION
Setting [5] is: Test System: AMES SALMONELLA TYPHIMURIUM, Strain/Indicator: TA100, Metabolic Activation: NONE, Method: PREINCUBATION

Each structure is given as a SMILES string. Active and inactive are the calls of the source. How the calls were made is not given here.

Take `COc1cc(O)c2c(O)c3c(=O)oc(C)cc3c(OC)c2c1`: the mutagenic call is, setting by setting: (Test System: AMES SALMONELLA TYPHIMURIUM, Strain/Indicator: TA98, Metabolic Activation: MOUSE, LIVER, S-9, AROCLOR 1254, Method: STANDARD PLATE) “active; positive”; under setting [1], “active; positive”; (Test System: AMES SALMONELLA TYPHIMURIUM, Strain/Indicator: TA100, Metabolic Activation: MOUSE, LIVER, S-9, AROCLOR 1254, Method: STANDARD PLATE) “active; positive”; under setting [2], “active; positive”; (Test System: AMES SALMONELLA TYPHIMURIUM, Strain/Indicator: TA102, Metabolic Activation: MOUSE, LIVER, S-9, AROCLOR 1254, Method: STANDARD PLATE) “active; positive”; (Test System: AMES SALMONELLA TYPHIMURIUM, Strain/Indicator: TA102, Metabolic Activation: NONE, Method: STANDARD PLATE) “active; positive”.

Consider `Cc1cccc2c1ccc1c3ccccc3ccc21`, for which the mutagenic call was “inactive; negative” (Test System: AMES SALMONELLA TYPHIMURIUM, Strain/Indicator: TA100, Metabolic Activation: RAT, LIVER, MICROSOMES, 1-METHYLCHRYSENE, Method: STANDARD PLATE); “inactive; negative” (Test System: AMES SALMONELLA TYPHIMURIUM, Strain/Indicator: TA100, Metabolic Activation: RAT, LIVER, MICROSOMES, AROCLOR 1254, Method: STANDARD PLATE); “inactive; negative” (Test System: AMES SALMONELLA TYPHIMURIUM, Strain/Indicator: TA100, Metabolic Activation: RAT, LIVER, MICROSOMES, Method: STANDARD PLATE).

As for `Nc1ccc(Cl)c(Cl)c1Cl`, the mutagenic call by setting is: under setting [1], “inactive; negative”; under setting [3], “inactive; negative”; under setting [2], “inactive; negative”; (Test System: AMES SALMONELLA TYPHIMURIUM, Strain/Indicator: TA100, Metabolic Activation: RAT, LIVER, S-9, AROCLOR 1254, Method: STANDARD PLATE) “inactive; negative”.

Consider `Nc1ccc(N)c(S(=O)(=O)O)c1`, for which the mutagenic call runs as follows: under setting [4], “inactive; negative”; (Test System: AMES SALMONELLA TYPHIMURIUM, Strain/Indicator: TA98, Metabolic Activation: RAT, LIVER, S-9, AROCLOR 1254, Method: PREINCUBATION) “inactive; negative”; under setting [5], “inactive; negative”; (Test System: AMES SALMONELLA TYPHIMURIUM, Strain/Indicator: TA100, Metabolic Activation: RAT, LIVER, S-9, AROCLOR 1254, Method: PREINCUBATION) “inactive; negative”; (Test System: UDS RODENT HEPATOCYTES, Strain/Indicator: THY INCORP (NON-S-PHASE), Metabolic Activation: NONE, Method: AUTORADIOGRAPHY) “active; positive”.

As for `CS(=O)(=O)OC[C@H](O)[C@@H](O)COS(C)(=O)=O`, the mutagenic call by setting is: under setting [2], “active; positive”; (Test System: AMES SALMONELLA TYPHIMURIUM, Strain/Indicator: TA1535, Metabolic Activation: NONE, Method: STANDARD PLATE) “active; positive”; (Test System: AMES SALMONELLA TYPHIMURIUM, Strain/Indicator: TA7004, Metabolic Activation: NONE, Method: STANDARD PLATE) “active; positive”; (Test System: AMES SALMONELLA TYPHIMURIUM, Strain/Indicator: TA7005, Metabolic Activation: NONE, Method: STANDARD PLATE) “inactive; negative”; (Test System: CHINESE HAMSTER OVARY, Strain/Indicator: AS52/6-THIOGUANINE, Metabolic Activation: NONE) “active; positive”.

For the molecule `Nc1cccc2c(=O)[nH][nH]c(=O)c12`, the mutagenic call was “inactive; negative” (Test System: AMES SALMONELLA TYPHIMURIUM, Strain/Indicator: TA97, Metabolic Activation: HAMSTER, LIVER, S-9, AROCLOR 1254 (10 OR 30%), Method: PREINCUBATION); “inactive; negative” (Test System: AMES SALMONELLA TYPHIMURIUM, Strain/Indicator: TA97, Metabolic Activation: NONE, Method: PREINCUBATION); “inactive; negative” (Test System: AMES SALMONELLA TYPHIMURIUM, Strain/Indicator: TA97, Metabolic Activation: RAT, LIVER, S-9, AROCLOR 1254 (10 OR 30%), Method: PREINCUBATION); “inactive; negative” (Test System: AMES SALMONELLA TYPHIMURIUM, Strain/Indicator: TA98, Metabolic Activation: HAMSTER, LIVER, S-9, AROCLOR 1254 (10 OR 30%), Method: PREINCUBATION); “inactive; negative” under setting [4]; “inactive; negative” (Test System: AMES SALMONELLA TYPHIMURIUM, Strain/Indicator: TA98, Metabolic Activation: RAT, LIVER, S-9, AROCLOR 1254 (10 OR 30%), Method: PREINCUBATION). Moreover, the mutagenic call (Test System: AMES SALMONELLA TYPHIMURIUM, Strain/Indicator: TA100, Metabolic Activation: HAMSTER, LIVER, S-9, AROCLOR 1254 (10 OR 30%), Method: PREINCUBATION) was “inactive; negative”; the mutagenic call under setting [5] is “inactive; negative”; the mutagenic call (Test System: AMES SALMONELLA TYPHIMURIUM, Strain/Indicator: TA100, Metabolic Activation: RAT, LIVER, S-9, AROCLOR 1254 (10 OR 30%), Method: PREINCUBATION) was “inactive; negative”; the mutagenic call (Test System: AMES SALMONELLA TYPHIMURIUM, Strain/Indicator: TA1535, Metabolic Activation: HAMSTER, LIVER, S-9, AROCLOR 1254 (10 OR 30%), Method: PREINCUBATION) is “inactive; negative”; the mutagenic call (Test System: AMES SALMONELLA TYPHIMURIUM, Strain/Indicator: TA1535, Metabolic Activation: NONE, Method: PREINCUBATION) is “inactive; negative”; the mutagenic call (Test System: AMES SALMONELLA TYPHIMURIUM, Strain/Indicator: TA1535, Metabolic Activation: RAT, LIVER, S-9, AROCLOR 1254 (10 OR 30%), Method: PREINCUBATION) was “inactive; negative”. For the same molecule, the mutagenic call was “inactive; negative” (Test System: AMES SALMONELLA TYPHIMURIUM, Strain/Indicator: TA1537, Metabolic Activation: HAMSTER, LIVER, S-9, AROCLOR 1254 (10 OR 30%), Method: PREINCUBATION); “inactive; negative” (Test System: AMES SALMONELLA TYPHIMURIUM, Strain/Indicator: TA1537, Metabolic Activation: NONE, Method: PREINCUBATION); “inactive; negative” (Test System: AMES SALMONELLA TYPHIMURIUM, Strain/Indicator: TA1537, Metabolic Activation: RAT, LIVER, S-9, AROCLOR 1254 (10 OR 30%), Method: PREINCUBATION).

For `ONc1ccc2c(c1)Cc1ccccc1-2`, the mutagenic call is “active; positive” under setting [1]; “active; positive” under setting [3]; “active; positive” (Test System: AMES SALMONELLA TYPHIMURIUM, Strain/Indicator: TA98, Metabolic Activation: S-9, Method: STANDARD PLATE); “active; positive” under setting [2]; “active; positive” (Test System: AMES SALMONELLA TYPHIMURIUM, Strain/Indicator: TA100, Metabolic Activation: S-9, Method: STANDARD PLATE); “active; positive” (Test System: AMES SALMONELLA TYPHIMURIUM, Strain/Indicator: TA1538, Metabolic Activation: NONE, Method: STANDARD PLATE). For the same molecule, the mutagenic call runs as follows: (Test System: AMES SALMONELLA TYPHIMURIUM, Strain/Indicator: YG1020, Metabolic Activation: NONE, Method: PREINCUBATION) “active; positive”; (Test System: AMES SALMONELLA TYPHIMURIUM, Strain/Indicator: YG1024, Metabolic Activation: NONE, Method: PREINCUBATION) “active; positive”; (Test System: AMES SALMONELLA TYPHIMURIUM, Strain/Indicator: YG1025, Metabolic Activation: NONE, Method: PREINCUBATION) “active; positive”; (Test System: AMES SALMONELLA TYPHIMURIUM, Strain/Indicator: YG1029, Metabolic Activation: NONE, Method: PREINCUBATION) “active; positive”; (Test System: CHINESE HAMSTER OVARY, Strain/Indicator: CHO-K1-BH4 (HGPRT), Metabolic Activation: NONE, Method: SUSPENSION) “active; positive”; (Test System: E. COLI, Strain/Indicator: WP2, Metabolic Activation: NONE, Method: PREINCUBATION) “active; positive”. The mutagenic call (Test System: E. COLI, Strain/Indicator: WP2 UVRA, Metabolic Activation: NONE, Method: PREINCUBATION) is “active; positive”.
